Test results from patent US4176182A, “Sulfamoyl derivatives of 8-β-aminomethylergoline” (priority 1976, dated 1979).
Values after ≈ are worked out from the molar mass of the structure shown. Where two headings read alike, the source gives them in different places.

How the values were obtained:
[1] = system: ileus of guinea pig (BaCl2); assay: spasmolytic activity, ileus of guinea pig, BaCl2, in vitro; format: cell-based; conditions: for EC50: Cavia porcellus, spasmolytic activity, in vitro, no quantity or unit printed in this column head; for times less active as regards the spasmolytic activity: vs comparison compound (papaverine as spasmolytic agent)
[2] = system: clones induced by tryptamine; assay: clones induced by tryptamine in the rat, in vivo; conditions: sc, read-out: Clones induced by Tryptamine ED50
Description: (§1) These novel compounds show anti-serotonin activity both peripherally and on the central nervous system. This activity had been tested "in vitro" through the inhibition of the contractions as induced by 5-hydroxytryptamine (serotonin) (5 HT) in the uterus of a female rat, which 20 hours before the test had been treated with estradiol dipropionate (see Ersparmer, Archiv. int. Pharmacodyn. 93, 293, 1953), and "in vivo" on the clones induced by tryptamine (40 mg/kg i.v.) in the rat (S. J. Corne et al., Brit. J. Pharmacol., 20, 106, 1963).

LD50 in the mouse, iv = conditions: in vivo
[3] = system: seminal vesicle of guinea pig; assay: adrenolytic activity, seminal vesicle of guinea pig, in vitro; format: cell-based; conditions: for EC50: Cavia porcellus, adrenolytic activity, in vitro; for times less active as regards the adrenolytic activity: vs comparison compound (dihydroergocristine as alpha-blocking agent)
[4] = system: 5-hydroxytryptamine (serotonin) induced contractions, uterus of female rat; assay: inhibition of 5-hydroxytryptamine (serotonin)-induced contractions in uterus of female rat, in vitro; format: cell-based; conditions: for EC50: 5-HT-induced contractions, rat treated with estradiol dipropionate 20 hours before; for times more active than the comparison compound as to the anti-5 HT activity: comparison compound methergoline
Description: as §1

| SMILES | EC50 [1] [ng/mL] | ED50 ([2]; rat, tryptamine 40 mg/kg i.v.) [mg/kg] | LD50 (LD50 in the mouse, iv) [mg/kg] | EC50 [3] [ng/mL] | EC50 [4] [ng/mL] | times less active as regards the spasmolytic activity [1] [times] | times less active as regards the adrenolytic activity [3] [times] | times more active than the comparison compound as to the anti-5 HT activity [4] [times] | ED50 ([2]; Rattus norvegicus) [mg/kg] |
| --- | --- | --- | --- | --- | --- | --- | --- | --- | --- |
| CN1C[C@H](CNS(=O)(=O)N(C)C)C[C@@H]2c3cccc4[nH]cc(c34)C[C@H]21 [Compound 2] | 10000 (≈ 27.6 µM) | 10 | 22.5 | 1500 (≈ 4.14 µM) | 5 (≈ 0.0138 µM) | – | – | – | – |
| CN1C[C@H](CNS(=O)(=O)N2CCCCC2)C=C2c3cccc4c3c(cn4C)C[C@H]21 [Compound 12, 1-(1,6-dimethyl-8β-didehydroergolenylmethyl)-3-piperidino-sulfonamide] | 15000 (≈ 36.2 µM) | 0.046 | 20 | 1000 (≈ 2.41 µM) | 0.02 (≈ 4.82e-05 µM) | 2 | 25 | 250 | – |
| CN1C[C@H](CNS(=O)(=O)N2CCCCCC2)C=C2c3cccc4[nH]cc(c34)C[C@H]21 [Compound 7, 1-(1H-hexahydroazepine)-3-(6-methyl-8β-didehydroergolenyl-methyl)-sulfonamide] | 5000 (≈ 12.1 µM) | 2.47 | 50.2 | 800 (≈ 1.93 µM) | 7 (≈ 0.0169 µM) | – | – | – | – |
| COc1ccc(Cc2nccc3cc(OC)c(OC)cc23)cc1OC [Papaverin, papaverine, reference compound] | 8900 (≈ 26.2 µM) | – | 38 | – | – | – | – | – | – |
| CN1C[C@H](CNS(=O)(=O)N2CCOCC2)C=C2c3cccc4[nH]cc(c34)C[C@H]21 [Compound 9, 1-(6-methyl-8β-didehydroergolenylmethyl)-3-morpholino-sulfonamide] | 15000 (≈ 37.3 µM) | 4.25 | 34.5 | 100 (≈ 0.248 µM) | 5 (≈ 0.0124 µM) | – | – | – | – |
| CN1C[C@H](CNS(=O)(=O)N2CCCC2)C=C2c3cccc4c3c(cn4C)C[C@H]21 [Compound 11, 1-(1,6-dimethyl-8β-didehydroergolenylmethyl)-3-pyrrolidine-sulfonamide] | 15000 (≈ 37.4 µM) | 0.016 | 22.3 | 1000 (≈ 2.5 µM) | 0.2 (≈ 0.000499 µM) | 2 | 25 | 25 | – |
| CN1C[C@H](CNS(=O)(=O)N2CCCCC2)C=C2c3cccc4[nH]cc(c34)C[C@H]21 [Compound 5, 1-(6-methyl-8β-didehydroergolenylmethyl)-3-piperidino-sulfonamide] | 7500 (≈ 18.7 µM) | 0.51 | 45 | 200 (≈ 0.499 µM) | 3 (≈ 0.00749 µM) | – | – | – | – |
| CN1C[C@H](CNC(=O)OCc2ccccc2)C[C@@H]2c3cccc4c3c(cn4C)C[C@H]21 [Methergoline, methergoline, reference compound] | – | – | 21.2 | – | 5 (≈ 0.0124 µM) | – | – | – | 0.062 |
| CN1C[C@H](CNS(=O)(=O)N2CCOCC2)C[C@@H]2c3cccc4[nH]cc(c34)C[C@H]21 [Compound 10] | 5000 (≈ 12.4 µM) | 7.2 | 51 | 70 (≈ 0.173 µM) | 5 (≈ 0.0124 µM) | – | – | – | – |
| CC(C)[C@@]1(NC(=O)[C@@H]2C[C@@H]3c4cccc5[nH]cc(c45)C[C@H]3N(C)C2)O[C@@]2(O)[C@@H]3CCCN3C(=O)[C@H](Cc3ccccc3)N2C1=O [Dihydroergocristine methansulfonate, dihydroergocristine, reference compound] | – | – | 70 | 8 | – | – | – | – | – |
